Test results taken from patent US11400082B2, “Methods of treating elevated plasma cholesterol” (Montréal Heart Institute, priority 2017, dated 2022).
Values joined by “and” are separate entries in the source; they are usually repeats but may differ in a detail not shown here. Equal entries are not always repeated. Where two headings read alike, the source gives them in different places.

Key:
LDLR protein [1] = experiment: Western blot analysis, relative quantification of LDLR protein levels; assay type: cell-based, human; details: overnight, hepatoma cells (HepG2, FIG. 13), normalized to actin, vehicle (DMSO) = 1
Description: (§1) For sterol-regulated conditions, HepG2 cells were incubated in 5% LPDS, 50 μM mevastatin, and 50 μM mevalonolactone in the absence (-sterols) or presence of 1 μg/ml 25-hydroxycholesterol and 10 μg/ml cholesterol (+sterols). For inhibitor treatments HepG2 cells were treated with DMSO or 10 μM compounds 2 in combination with U0126 (25 μM, catalog no. 9903, Cell Signaling Technology), Cycloheximide (CHX; 20 μg/ml, catalog no. C7698, Sigma-Aldrich), PD153035 (20 μM, catalog no. 14879, Cayman Chemical), bisindolylmaleimide I (BIM; 10 μM, catalog no. 13298, Cayman Chemical), H-89 (10 μM, catalog no. 10010556, Cayman Chemical), Dorsomorphin (5 μM, catalog no. 11967, Cayman Chemical) or 5-Azacytidine (10 μM, catalog no. A2385, Sigma-Aldrich).
Treated cells from Example 28 were washed three times in phosphate-buffered saline (PBS) and lysed in radioimmune precipitation assay buffer (50 mM Tris/HCl, pH 8.0, 1% (v/v) Nonidet P-40, 0.5% sodium deoxycholate, 150 mM NaCl, and 0.1% (v/v) SDS) supplemented with a complete protease inhibitor mixture (catalog no. 11 697 498 001, Roche Applied Science). Proteins were separated by 8% SDS polyacrylamide gel electrophoresis, blotted on nitrocellulose membranes (Bio-Rad), and blocked for 1 h in Tris-buffered saline-Tween 20 (TBS-T; 50 mM Tris-HCl, pH 7.5, 150 mM NaCl, 0.1% Tween 20) containing 5% nonfat dry milk. Membranes were then incubated overnight in TBS-T supplemented with 1% nonfat milk and the indicated antibodies; goat anti-human LDLR (1:1000; catalog no. AF2148, R&D Systems), rabbit anti-actin (1:5000; catalog no. A2066, Sigma-Aldrich). Appropriate HRP-conjugated secondary antibodies (1:10,000; GE healthcare) were used for detection using the Western Lightning Ultra chemiluminescence kit (catalog no. NEI112001EA, PerkinElmer Life Sciences) and BioFlex EC Films (catalog no. CLEC810, InterScience). Unsaturated films were numerized using the high resolution CanoScan 9000F scanner and corresponding bands were quantified using the ImageJ software (NIH). Relative quantification of LDLR protein levels were normalized to that of actin and compared to vehicle (DMSO) herein determined as 1.

LDLR protein [2] = assay type: cell-based, human
Description: as §1
Treated cells from Example 28 were washed three times in phosphate-buffered saline (PBS) and lysed in radioimmune precipitation assay buffer (50 mM Tris/HCl, pH 8.0, 1% (v/v) Nonidet P-40, 0.5% sodium deoxycholate, 150 mM NaCl, and 0.1% (v/v) SDS) supplemented with a complete protease inhibitor mixture (catalog no. 11 697 498 001, Roche Applied Science). […] Unsaturated films were numerized using the high resolution CanoScan 9000F scanner and corresponding bands were quantified using the ImageJ software (NIH). Relative quantification of LDLR protein levels were normalized to that of actin and compared to vehicle (DMSO) herein determined as 1.

[3] = Cell viability assay (MTT); assay type: cell-based; details: human; overnight incubation, viability relative to DMSO
Description: Following incubation, media was replaced and cells incubated for 4 h with 100 μL of phenol red-free DMEM containing 0.5 mg/mL of MTT (3-[4,5-dimethylthiazol-2-yl]-2,5-diphenyltetrazolium bromide; thiazolyl blue; catalog no. M5655, Sigma-Aldrich). Afterwards, media was removed and converted dye solubilized with 100 μL acidic isopropanol (0.06 N) and absorbance measured at a wavelength of 570 nm with background subtraction at 650 nm. Arbitrary units of cell viability of a given example were determined relative to equal volume of DMSO (vehicle) for each concentration used.

SMILES	LDLR Fold Change 10 nM (LDLR protein [1])	LDLR Fold Change 10 μM (LDLR protein [1])	other results
COC(=O)c1ncc(COCc2ccc(OC)cc2)c2c1OC(C)(C)OC2 [Compound 10, methyl 5-((4-methoxybenzyloxy)methyl)-2,2-dimethyl-4H-[1,3] dioxino[4,5-c]pyridine-8-carboxylate]	1.7	1.2	–
COc1ccc(COCc2cnc(C)c3c2COC(C)(C)O3)cc1 [Compound 9, 5-((4-methoxybenzyloxy)methyl)-2,2,8-trimethyl-4H-[1,3]dioxino[4,5-c]pyridine]	–	1.4	–
C[C@@H]1C[C@@H]([C@H](O)CC2CC(=O)NC(=O)C2)C(=O)[C@@H](C)C1 [CHX, Cycloheximide]	–	–	effect of combined inhibitor on increase of LDLR by Compound 2 (LDLR protein [2]; HepG2 cells, 10 μM Compound 2 in combination with inhibitor (U0126 25 μM, CHX 20 μg/ml), FIG. 19): block increase of LDLR by Compound 2
CC1(C)OCc2c(CNCc3ccc(F)c(Cl)c3)cnc(C(=O)NO)c2O1.Cl [Compound 5, 5-{(1-3-chloro-4-fluoro-phenyl)aminomethyl} 2,2-dimethyl-4H-[1,3]dioxino[4,5-c]pyridine-8-carboxylic acid hydroxamide]	–	2.4	–
Cc1ncc(COc2ccc(F)cc2)c2c1OC(C)(C)OC2 [Compound 26, 5-((4-fluorophenoxy)methyl)-2,2-dimethyl-4H-[1,3]dioxino[4,5-c]picoline]	1	1.5	–
N#CC(=C(/N)Sc1ccccc1N)/C(C#N)=C(\N)Sc1ccccc1N [Compound U0126, U0126]	–	–	effect of combined inhibitor on increase of LDLR by Compound 2 (LDLR protein [2]): block increase of LDLR by Compound 2
O=C(NO)c1ncc(CNc2ccc(F)cc2)c(CO)c1O [Compound 1, 5-[(4-fluoro-phenylamino)-methyl]-3-hydroxy-4-hydroxymethyl-pyridine-2-carboxylic acid hydroxyamide]	–	6.9	CC50 [3]: 120 µM
COC(=O)c1ncc(C(=O)NCc2ccc(F)c(Cl)c2)c2c1OC(C)(C)OC2 [Compound 25, 2,2-dimethyl-4H-[1,3]dioxino[4,5-c]pyridine-5,8-dicarboxylic acid 5-(3-chloro-4-fluoro-benzylamide)-8-(methyl ester)]	–	1.9	–
COc1c(C(=O)NO)ncc(C(=O)NCc2ccc(F)cc2)c1CO [Compound 19, 4-hydroxymethyl-3-methoxy-pyridine-2,5-dicarboxylic acid 5-(4-fluoro-benzylamide) 2-hydroxyamide]	–	–	CC50 [3]: 6.6 µM
O=C(NCc1ccc(F)c(Cl)c1)c1cnc(C(=O)NO)c(O)c1CO [Compound 4, N^5-(3-chloro-4-fluorobenzyl)-N^2,3-dihydroxy-4-(hydroxymethyl)pyridine-2,5-dicarboxamide]	–	2.7	–
COc1ccc(COCc2cnc(C(=O)O)c(O)c2C)cc1 [Compound 7, 5-(4-methoxy-benzyloxymethyl)-3-hydroxy-4-methyl-pyridine-2-carboxylic acid]	1.7	1.9 and 2-3	–
Cc1ncc(COc2ccc(F)cc2)c(CO)c1O [Compound 27, 5-((4-fluorophenoxy)methyl)-3-hydroxy-4-(hydroxymethyl)picoline]	0.6	1.2	–
O=C(NO)c1ncc(COc2ccc(F)c(Cl)c2)c(CO)c1O [Compound 3, 5-(3-chloro-4-fluoro-phenoxymethyl)-3-hydroxy-4-hydroxymethyl-pyridine-2-carboxylic acid hydroxyamide]	–	5.6	CC50 [3]: 11 µM
COC(=O)c1ncc(COCc2ccc(OC)cc2)c(C)c1O [Compound 8, 5-(4-methoxy-benzyloxymethyl)-3-hydroxy-4-methyl-pyridine-2-carboxylic acid methyl ester]	1.7	1.7	–
O=C(NO)c1ncc(CCc2ccc(F)cc2)c(CO)c1O [Compound 6, 5-[2-(4-fluoro-phenyl)-ethyl]-3-hydroxy-4-hydroxymethyl-pyridine-2-carboxylic acid hydroxamide]	1.5	2.3	CC50 [3]: 39 µM
